{
  "source": "PubChem BioAssay AID1963873",
  "about": "(Molecular Pharmacology Branch, DTP, NCI, 2024);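 note: cells exposed to agents for seven days before viability read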;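 for viability, T/C: 100% = DMSO vehicle control wells and lower values mean fewer viable cells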",
  "test_system": "276233-004-R-J1-PDC KRAS spheroids with HUVEC/MSC, viability",
  "assay": "Anticancer human tumor 276233-004-R-J1-PDC patient-derived colon adenocarcinoma cell line growth inhibition [KRAS2]",
  "conditions": "for IC50: curve of first compound; for viability, T/C: stronger effect = lower value",
  "summary_of_the_method": "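KRAS-mutant tumor cells were grown as spheroids with HUVEC endothelial cells and human MSCs as stroma. Targeted agents were tested alone and with KRAS pathway inhibitors. Doses started at or near clinical Cmax, or 10 microM, descending half-log.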",
  "data": [
    {"smiles": "COC(=O)c1ccc2c(C(=Nc3ccc(N(C)C(=O)CN4CCN(C)CC4)cc3)c3ccccc3)c(O)[nH]c2c1", "note": "+ C=CC(=O)N1CCN(c2nc(=O)n(-c3c(C)ccnc3C(C)C)c3nc(-c4c(O)cccc4F)c(F)cc23)C(C)C1", "values": [
      {"measurement": "IC50", "setting": "second compound 0.1 µM", "result": "> 10", "unit": "µM"},
      {"measurement": "IC50", "setting": "second compound 0.316 µM", "result": "> 10", "unit": "µM"},
      {"measurement": "IC50", "setting": "second compound 1 µM", "result": "> 10", "unit": "µM"},
      {"measurement": "IC50", "setting": "second compound 3.16 µM", "result": "> 10", "unit": "µM"},
      {"measurement": "IC50", "setting": "second compound 10 µM", "result": 3.36, "unit": "µM"},
      {"measurement": "viability, T/C", "setting": "second compound 0.1 µM, first compound 0.0316 µM", "result": 104, "unit": "%"},
      {"measurement": "viability, T/C", "setting": "second compound 0.1 µM, first compound 0.1 µM", "result": 72.4, "unit": "%"},
      {"measurement": "viability, T/C", "setting": "second compound 0.1 µM, first compound 0.316 µM", "result": 71.5, "unit": "%"},
      {"measurement": "viability, T/C", "setting": "second compound 0.1 µM, first compound 1 µM", "result": 92.8, "unit": "%"},
      {"measurement": "viability, T/C", "setting": "second compound 0.1 µM, first compound 3.16 µM", "result": 91.8, "unit": "%"},
      {"measurement": "viability, T/C", "setting": "second compound 0.1 µM, first compound 10 µM", "result": 97.2, "unit": "%"},
      {"measurement": "viability, T/C", "setting": "second compound 0.316 µM, first compound 0.0316 µM", "result": 105, "unit": "%"},
      {"measurement": "viability, T/C", "setting": "second compound 0.316 µM, first compound 0.1 µM", "result": 80.5, "unit": "%"},
      {"measurement": "viability, T/C", "setting": "second compound 0.316 µM, first compound 0.316 µM", "result": 90, "unit": "%"},
      {"measurement": "viability, T/C", "setting": "second compound 0.316 µM, first compound 1 µM", "result": 83, "unit": "%"},
      {"measurement": "viability, T/C", "setting": "second compound 0.316 µM, first compound 3.16 µM", "result": 91.1, "unit": "%"},
      {"measurement": "viability, T/C", "setting": "second compound 0.316 µM, first compound 10 µM", "result": 92.3, "unit": "%"},
      {"measurement": "viability, T/C", "setting": "second compound 1 µM, first compound 0.0316 µM", "result": 106, "unit": "%"},
      {"measurement": "viability, T/C", "setting": "second compound 1 µM, first compound 0.1 µM", "result": 87.5, "unit": "%"},
      {"measurement": "viability, T/C", "setting": "second compound 1 µM, first compound 0.316 µM", "result": 64.8, "unit": "%"},
      {"measurement": "viability, T/C", "setting": "second compound 1 µM, first compound 1 µM", "result": 96.7, "unit": "%"},
      {"measurement": "viability, T/C", "setting": "second compound 1 µM, first compound 3.16 µM", "result": 96, "unit": "%"},
      {"measurement": "viability, T/C", "setting": "second compound 1 µM, first compound 10 µM", "result": 88.3, "unit": "%"},
      {"measurement": "viability, T/C", "setting": "second compound 3.16 µM, first compound 0.0316 µM", "result": 93.9, "unit": "%"},
      {"measurement": "viability, T/C", "setting": "second compound 3.16 µM, first compound 0.1 µM", "result": 78.1, "unit": "%"},
      {"measurement": "viability, T/C", "setting": "second compound 3.16 µM, first compound 0.316 µM", "result": 81.1, "unit": "%"},
      {"measurement": "viability, T/C", "setting": "second compound 3.16 µM, first compound 1 µM", "result": 63.3, "unit": "%"},
      {"measurement": "viability, T/C", "setting": "second compound 3.16 µM, first compound 3.16 µM", "result": 89.5, "unit": "%"},
      {"measurement": "viability, T/C", "setting": "second compound 3.16 µM, first compound 10 µM", "result": 95.5, "unit": "%"},
      {"measurement": "viability, T/C", "setting": "second compound 10 µM, first compound 0.0316 µM", "result": 78.2, "unit": "%"},
      {"measurement": "viability, T/C", "setting": "second compound 10 µM, first compound 0.1 µM", "result": 73.2, "unit": "%"},
      {"measurement": "viability, T/C", "setting": "second compound 10 µM, first compound 0.316 µM", "result": 61.2, "unit": "%"},
      {"measurement": "viability, T/C", "setting": "second compound 10 µM, first compound 1 µM", "result": 82.2, "unit": "%"},
      {"measurement": "viability, T/C", "setting": "second compound 10 µM, first compound 3.16 µM", "result": 51.8, "unit": "%"},
      {"measurement": "viability, T/C", "setting": "second compound 10 µM, first compound 10 µM", "result": 16.8, "unit": "%"}
    ]}
  ]
}
